Experiments:
Type in all cases: in vivo
[1] = system: AhR pathway genes; test: qPCR expression of AhR pathway and inflammation genes in duodenum; conditions: gluten treated NOD/DQ8 mice; 1 μg/mouse i.p. at day 1, 10, 20 and 30; vs vehicle (DMSO)
Protocol: AhR activation in duodenal biopsies was measured through qPCR to assess the expression of AhR pathway genes: AhR, CYP1A1, IL-22 and IL-17. IL-15 gene expression was also measured by qPCR as an inflammation marker. Total RNA was isolated from mouse duodenum samples using RNeasy Mini Kit (Qiagen, Hilden, Germany) with the DNase treatment, according to the manufacturer's instructions. RNA concentration was determined using a NanoDrop spectrophotometer […]. Quantitative RT-PCR was performed using iScript Reverse Transcriptase (Bio-Rad) and then a SsoFast EvaGreen Supermix (Bio-Rad) in a Mastercycler ep realplex apparatus (Eppendorf) with specific mouse oligonucleotides. Additional information on the primers used is available in Table 2. qPCR data were analyzed using the 2-ΔΔCt quantification method with mouse Gapdh as the endogenous control.

[2] = system: NOD/DQ8 mice; test: Fecal lipocalin-2 quantification; conditions: gluten treated NOD/DQ8 mice; 1 μg/mouse i.p. at day 1, 10, 20 and 30; vs vehicle (DMSO)
[3] = system: NOD/DQ8 mice; test: Gut barrier function by Ussing chamber technique (jejunum); conditions: gluten treated NOD/DQ8 mice, 1 μg/mouse i.p. at day 1, 10, 20 and 30, vs vehicle (DMSO)
Protocol: Gut barrier function was assessed by a Ussing chamber technique. Briefly, sections of jejunum from each mouse were mounted in a Ussing Chamber with an opening of 0.6 cm^2. Net active transport across the epithelium was measured via a short circuit current response (Isc, μA) injected through the tissue under voltage-clamp conditions. Baseline Isc (μA/cm^2) was recorded at equilibrium 20 min after mounting jejunum sections. Mucosal-to-serosal transport of macromolecules was assessed by adding ^51Cr-EDTA in the luminal side of the chamber. ^51Cr-EDTA fluxes were calculated by measuring the proportion of radioactive ^51Cr-EDTA detected in the serosal side of the chamber after 2 hours compared to the radioactive ^51Cr-EDTA placed in the luminal side at the beginning of experiment.

[4] = system: NOD/DQ8 mice; test: Histology and immunohistochemistry of proximal small intestine (V/C ratios, CD3+ IEL counts); conditions: gluten treated NOD/DQ8 mice; 1 μg/mouse i.p. at day 1, 10, 20 and 30; vs vehicle (DMSO)
Protocol: For histology and immunohistochemistry studies, cross-sections of the proximal small intestine were fixed in 10% formalin and embedded in paraffin. Enteropathy was determined by measuring villus-to-crypt (V/C) ratios in a blinded fashion. The presence of IELs (intraepithelial lymphocytes) in the sections was determined by immunostaining for CD3+ cells. Briefly, sections were stained with polyclonal rabbit anti-mouse CD3 (Dako) and in each section, and intraepithelial lymphocytosis was determined by counting CD3+ IELs per 20 enterocytes in five randomly chosen villus tips.

For `O=Cc1c2c(cc3c1=Nc1ccccc1-3)=Nc1ccccc1-2` [Ficz, 6-formylindolo(3,2-b) carbazole], the “intestinal IL-15 expression” value [1] was “did not affect”, the “intestinal expression of AhR target genes (Cyp1a1, Il22, Il17)” value [1] was “even higher expression” and the “other markers of overall gut inflammation (fecal lipocalin-2, FIG. 17)” value [2] was “improved”. The paracellular permeability ([3]; 51Cr-EDTA) was “improved”, the ion transport [3] was “improved” and the IEL counts [4] was “improved”. For the same molecule, the V/C ratios [4] was “improved”.

Reference: US20220143143A1, “USE OF ACTIVATORS OF THE ARYL HYDROCARBON RECEPTOR FOR TREATING GLUTEN-INDUCED GASTROINTESTINAL DISEASES” (McMaster University, priority 2019, published 2022)
